Test results taken from US20110262508A1, “ANTIMICROBIAL COMPOSITIONS, FORMULATIONS AND USES THEREOF” (priority 2007, published 2011).
Peptide text beside a SMILES is read from it. * marks the point of attachment. Biotin = O=C1N[C@H]2[C@H](CS[C@H]2CCCCC(=O)*)N1

Columns and labels:
[1] = system: Escherichia coli strain BL21; assay type: cell-based; conditions: summary of Table 6
A. baumannii = assay type: cell-based
How it was run: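 Laboratory strains and 50 clinical isolates of A. baumannii were tested by CLSI broth microdilution, with serially diluted peptide (0.1-64 μg) and about 1×10^5 C.F.U. per well, incubated aerobically overnight at 35±2° C. MIC was read visually. MBC came from subculturing clear wells, as ≥99.9% inoculum reduction.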

human RBC = assay: Hemolysis of RBC; assay type: cell-based
Protocol: Varying amounts of peptide were incubated with the washed RBC for one hour at room temperature. Intact cells were pelleted by gentle centrifugation, and hemolysis of each sample was determined by absorption measurement at 450 nm. A positive control sample consisted of RBC lysed by the addition of 0.1% Triton, for which hemolysis was also determined by absorption measurement at 450 nm. Percentages of lysed RBC incubated with peptide were then calculated by the ratio of absorbances at 450 nm for the sample relative to the absorbance at 450 nm of the positive control sample. The MHC10 value was calculated as the minimum peptide concentration to induce 10% cell lysis.

[2] = Cytotoxicity against Jurkat cells (CellTiter Blue); assay type: cell-based, human; conditions: human
Protocol: (§1) The cytotoxicities of selected peptides against human T-lymphocytes, in particular Jurkat cells, was determined by growing 100 uL Jurkat cells in RPMI (approx. 5×10^5 cells/ml density) overnight at 37° C. under 5% CO2 atmosphere, in microtiter plate wells, in the presence and absence of peptides. Control reactions either lacked peptide (negative cytotoxicity control), or contained a buffer to completely lyse Jurkat cells (positive cytotoxicity control). The viabilities of cells were then determined by addition of 20 uL CellTiter Blue dye (Promega) to each well, and incubation of cells for a further 3 hrs at 37° C. Fluorescence values were measured for 1 sec at 540 nm/615 nm, and expressed relative to fluorescence values for negative and positive cytotoxicity control samples. Comparison with a fully lysed control allowed the calculation of a percentage killing for each peptide concentration. The MCC10 value was calculated as the minimum peptide concentration required to induce 10% cytotoxicity.

Jurkat cells = assay: Cytotoxicity against Jurkat cells (CellTiter Blue); assay type: cell-based, human
Protocol: as §1

| MIC (μM) for non-amidated Peptide (A. baumannii) [µM] | Compound | inhibition of growth of E. coli [1] | MHC10 (human RBC) [µM] | cytotoxicity at 12.5 μM [2] [%] | cytotoxicity at 25 μM [2] [%] | cytotoxicity at 50 μM [2] [%] | MCC10 (Jurkat cells) [µM] |
| --- | --- | --- | --- | --- | --- | --- | --- |
| – | tachyplesin-1 [reference compound] | inhibited growth of E. coli significantly | – | – | – | – | – |
| 5 | CC[C@H](C)[C@H](NC(=O)[C@@H]1CCCN1C(=O)CCCC[C@@H]1SC[C@@H]2NC(=O)N[C@@H]21)C(=O)N1CCC[C@H]1C(=O)N[C@@H](Cc1ccccc1)C(=O)N[C@@H](Cc1ccccc1)C(=O)N[C@@H](CC(N)=O)C(=O)N[C@@H](CCCNC(=N)N)C(=O)N[C@H](C(=O)NCC(=O)N[C@@H](Cc1ccccc1)C(=O)N[C@@H](Cc1ccccc1)C(=O)N[C@@H](CS)C(=O)N[C@@H](CC(C)C)C(=O)N1CCC[C@H]1C(=O)N[C@@H](CCCCN)C(=O)N[C@@H](CC(N)=O)C(=O)N[C@@H](CC(C)C)C(=O)N[C@@H](CCCCN)C(=O)N[C@@H](CCCNC(=N)N)C(=O)N[C@@H](CO)C(=O)N[C@@H](CCCCN)C(=O)N[C@@H](Cc1ccccc1)C(=O)N[C@@H](CS)C(=O)O)[C@@H](C)O [Ac322] (Biotin-PIPFFNRTGFFCLPKNLKRSKFC-OH; N-terminus and C-terminus assumed) | – | 25 | 0 | 0 | 59 | 30 |
| 5 | CC[C@H](C)[C@H](NC(=O)[C@H](Cc1ccccc1)NC(=O)[C@H](CC(C)C)NC(=O)[C@H](CCC(N)=O)NC(=O)[C@H](CCCNC(=N)N)NC(=O)[C@H](Cc1ccccc1)NC(=O)[C@H](Cc1ccc(O)cc1)NC(=O)[C@H](CC(C)C)NC(=O)[C@H](Cc1c[nH]c2ccccc12)NC(=O)[C@H](Cc1ccccc1)NC(=O)[C@H](CCCNC(=N)N)NC(=O)[C@H](CCCNC(=N)N)NC(=O)[C@H](CO)NC(=O)[C@H](CC(=O)O)NC(=O)CCCC[C@@H]1SC[C@@H]2NC(=O)N[C@@H]21)C(=O)N[C@@H](Cc1c[nH]cn1)C(=O)N[C@@H](CC(N)=O)C(=O)N1CCC[C@H]1C(=O)N[C@@H](CCCCN)C(=O)N[C@H](C(=O)N1CCC[C@H]1C(=O)N[C@H](C(=O)N[C@H](C(=O)N1CCC[C@H]1C(=O)O)[C@@H](C)O)[C@@H](C)CC)[C@@H](C)O [Ac476] (Biotin-DSRRFWLYFRQLFIHNPKTPITP-OH) | – | 50 | 12 | 18 | 44 | 10 |
| 20 | CC(C)C[C@H](NC(=O)[C@H](Cc1ccccc1)NC(=O)CNC(=O)[C@H](CO)NC(=O)[C@@H]1CCCN1C(=O)[C@H](Cc1c[nH]c2ccccc12)NC(=O)[C@@H](NC(=O)[C@@H]1CCCN1C(=O)[C@H](CCCNC(=N)N)NC(=O)[C@@H](NC(=O)[C@H](C)NC(=O)[C@H](CS)NC(=O)[C@H](CCCNC(=N)N)NC(=O)[C@H](CO)NC(=O)[C@H](CO)NC(=O)[C@H](C)NC(=O)[C@H](C)NC(=O)[C@H](CCCNC(=N)N)NC(=O)[C@H](CO)NC(=O)[C@H](CO)NC(=O)[C@H](Cc1c[nH]cn1)NC(=O)[C@@H]1CCCN1C(=O)CCCC[C@@H]1SC[C@@H]2NC(=O)N[C@@H]21)C(C)C)C(C)C)C(=O)N[C@@H](CCCNC(=N)N)C(=O)O [Ac327] (Biotin-PHSSRAASSRCAVRPVWPSGFLR-OH) | – | 30 | 20 | 31 | 1 | 8 |
| 15 | CC[C@H](C)[C@H](NC(=O)[C@H](Cc1ccccc1)NC(=O)[C@H](CC(C)C)NC(=O)[C@H](CCC(N)=O)NC(=O)[C@H](CCCNC(=N)N)NC(=O)[C@H](Cc1ccccc1)NC(=O)[C@H](Cc1ccc(O)cc1)NC(=O)[C@H](CC(C)C)NC(=O)[C@H](Cc1c[nH]c2ccccc12)NC(=O)[C@H](Cc1ccccc1)NC(=O)[C@H](CCCNC(=N)N)NC(=O)[C@H](CCCNC(=N)N)NC(=O)[C@H](CO)NC(=O)[C@H](CC(=O)O)NC(=O)[C@H](CC(C)C)NC(=O)[C@H](Cc1c[nH]c2ccccc12)NC(=O)[C@H](Cc1ccccc1)NC(=O)[C@H](CC(=O)O)NC(=O)[C@H](CCCNC(=N)N)NC(=O)CCCC[C@@H]1SC[C@@H]2NC(=O)N[C@@H]21)C(=O)N[C@@H](Cc1c[nH]cn1)C(=O)N[C@@H](CC(N)=O)C(=O)N1CCC[C@H]1C(=O)N[C@@H](CCCCN)C(=O)O [Ac475] (Biotin-RDFWLDSRRFWLYFRQLFIHNPK-OH) | – | 10 | 4 | 4 | 60 | 35 |
| 12.5 | CC(C)C[C@H](NC(=O)[C@H](Cc1ccccc1)NC(=O)CNC(=O)[C@H](CO)NC(=O)[C@@H]1CCCN1C(=O)[C@H](Cc1c[nH]c2ccccc12)NC(=O)[C@@H](NC(=O)[C@@H]1CCCN1C(=O)[C@H](CCCNC(=N)N)NC(=O)[C@@H](NC(=O)[C@H](C)NC(=O)[C@H](CS)NC(=O)[C@H](CCCNC(=N)N)NC(=O)[C@H](CO)NC(=O)[C@H](CO)NC(=O)CCCC[C@@H]1SC[C@@H]2NC(=O)N[C@@H]21)C(C)C)C(C)C)C(=O)N[C@@H](CCCNC(=N)N)C(=O)N[C@@H](CCCNC(=N)N)C(=O)N[C@@H](CC(C)C)C(=O)N[C@@H](CO)C(=O)N[C@@H](CC(=O)O)C(=O)N[C@@H](CCCNC(=N)N)C(=O)N[C@@H](CS)C(=O)N[C@@H](CS)C(=O)O [Ac328] (Biotin-SSRCAVRPVWPSGFLRRLSDRCC-OH; N-terminus and C-terminus assumed) | – | 20 | 1 | 17 | 32 | 20 |
| 15 | CC[C@H](C)[C@H](NC(=O)[C@H](Cc1c[nH]cn1)NC(=O)[C@H](CO)NC(=O)[C@H](CC(C)C)NC(=O)[C@H](CS)NC(=O)[C@H](CS)NC(=O)[C@H](CCCNC(=N)N)NC(=O)[C@H](CCSC)NC(=O)[C@@H](NC(=O)[C@@H]1CCCN1C(=O)[C@H](CCC(N)=O)NC(=O)[C@H](Cc1c[nH]cn1)NC(=O)[C@H](CS)NC(=O)CCCC[C@@H]1SC[C@@H]2NC(=O)N[C@@H]21)[C@@H](C)O)C(=O)N[C@@H](CCCNC(=N)N)C(=O)N[C@@H](CCCNC(=N)N)C(=O)N[C@@H](CCCNC(=N)N)C(=O)N[C@@H](Cc1ccccc1)C(=O)N[C@@H](CCCNC(=N)N)C(=O)N[C@@H](CC(C)C)C(=O)O [Ac431] (Biotin-CHQPTMRCCLSHIRRRFRL-OH; N-terminus and C-terminus assumed) | – | 25 | 4 | 15 | 29 | 20 |
| 12.5 | CC[C@H](C)[C@H](NC(=O)[C@H](Cc1c[nH]c2ccccc12)NC(=O)[C@H](CCCNC(=N)N)NC(=O)[C@H](CO)NC(=O)[C@H](CCCNC(=N)N)NC(=O)[C@H](CCCNC(=N)N)NC(=O)[C@H](CO)NC(=O)[C@H](CCCNC(=N)N)NC(=O)[C@H](CCCNC(=N)N)NC(=O)[C@H](Cc1ccc(O)cc1)NC(=O)CNC(=O)CCCC[C@@H]1SC[C@@H]2NC(=O)N[C@@H]21)C(=O)N[C@@H](CS)C(=O)N[C@@H](CO)C(=O)N[C@@H](CCSC)C(=O)N[C@@H](C)C(=O)N[C@@H](CCCNC(=N)N)C(=O)N[C@@H](CCCNC(=N)N)C(=O)N[C@@H](CO)C(=O)N[C@@H](CCCNC(=N)N)C(=O)N[C@@H](CCCNC(=N)N)C(=O)N[C@@H](CCCNC(=N)N)C(=O)N[C@@H](CCCNC(=N)N)C(=O)N1CCC[C@H]1C(=O)O [Ac389] (Biotin-GYRRSRRSRWICSMARRSRRRRP-OH) | – | 50 | 0 | 34 | 95 | 15 |
